Experimental data taken from PubChem BioAssay AID220 (DTP/NCI, 2004).
Values joined by “and” are separate entries in the source; they are usually repeats but may differ in a detail not shown here. Identical values can stand only once. Records with an inconclusive call do not appear.

Test system: CD8F1 mice, subcutaneous mammary adenocarcinoma, T/C%
Test: NCI In Vivo Anticancer Drug Screen. Data for tumor model Mammary Adenocarcinoma CD8F1 (subcutaneous) in CD8F1
Details: higher = larger tumour
Method in brief: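 Mice carrying transplanted tumors received test compound, and survival or tumor size was recorded. Each value is the treated-group measurement divided by the corresponding measurement in vehicle-dosed controls.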

[1] = endpoint: median tumor weight (est.), dose: 8.0 mg/kg/injection, schedule: Q07DX005 (ip), vehicle: Klucel (hydroxypropylcellulose) (HPC)

For `O=C(O)C1(C(=O)O)CCC1.[NH2-].[NH2-].[Pt+2]`, the T/C (endpoint: median tumor weight change, dose: 6.25 mg/kg/injection, schedule: Q01DX001 (ip), vehicle: dextrose) was 98 % of control, the T/C (endpoint: median tumor weight change, dose: 12.5 mg/kg/injection, schedule: Q01DX001 (ip), vehicle: dextrose) was 80 % of control and the T/C (endpoint: median tumor weight change, dose: 25.0 mg/kg/injection, schedule: Q01DX001 (ip), vehicle: dextrose) was 52 % of control.
`Nc1cc(Cl)c2[nH]cnc2n1` was tested, and the T/C (endpoint: median tumor weight change, dose: 62.5 mg/kg/injection, schedule: Q01DX001 (ip), vehicle: distilled water + Tween-80) was 76 % of control, the T/C (endpoint: median tumor weight change, dose: 62.5 mg/kg/injection, schedule: Q01DX001 (ip), vehicle: water) was 111 % of control and the T/C (endpoint: median tumor weight change, dose: 125.0 mg/kg/injection, schedule: Q01DX001 (ip), vehicle: distilled water + Tween-80) was 88 % of control. The T/C (endpoint: median tumor weight change, dose: 125.0 mg/kg/injection, schedule: Q01DX001 (ip), vehicle: water) was 100 % of control, the T/C (endpoint: median tumor weight change, dose: 250.0 mg/kg/injection, schedule: Q01DX001 (ip), vehicle: distilled water + Tween-80) was 58 % of control and the T/C (endpoint: median tumor weight change, dose: 250.0 mg/kg/injection, schedule: Q01DX001 (ip), vehicle: water) was 92 % of control. The T/C (endpoint: median tumor weight change, dose: 500.0 mg/kg/injection, schedule: Q01DX001 (ip), vehicle: distilled water + Tween-80) was 82 % of control, the T/C (endpoint: median tumor weight change, dose: 500.0 mg/kg/injection, schedule: Q01DX001 (ip), vehicle: water) was 73 % of control and the T/C (endpoint: median tumor weight change, dose: 1000.0 mg/kg/injection, schedule: Q01DX001 (ip), vehicle: distilled water + Tween-80) was 42 % of control. The T/C (endpoint: median tumor weight change, dose: 1000.0 mg/kg/injection, schedule: Q01DX001 (ip), vehicle: water) was 80 % of control.
`NC(=O)c1[nH]nc(C2OC(CO)C(O)C2O)c1O` (stereo unspecified) was tested, and the T/C (endpoint: median tumor weight (est.), dose: 0.31 mg/kg/injection, schedule: Q07DX005 (ip), vehicle: saline) was 123 % of control, the T/C (endpoint: median tumor weight (est.), dose: 0.62 mg/kg/injection, schedule: Q07DX005 (ip), vehicle: saline) was 85 % of control and the T/C (endpoint: median tumor weight (est.), dose: 1.25 mg/kg/injection, schedule: Q07DX005 (ip), vehicle: saline) was 77 % of control. The T/C (endpoint: median tumor weight (est.), dose: 2.5 mg/kg/injection, schedule: Q07DX005 (ip), vehicle: saline) was 28 % of control, the T/C (endpoint: median tumor weight (est.), dose: 5.0 mg/kg/injection, schedule: Q07DX005 (ip), vehicle: saline) was 53 % of control and the T/C (endpoint: median tumor weight (est.), dose: 10.0 mg/kg/injection, schedule: Q07DX005 (ip), vehicle: saline) was 29 % of control.
With `COC(=O)c1cc2cc(C)c(C)c(C)c2c2ccc(C)cc12` the T/C (endpoint: median tumor weight (est.), dose: 100.0 mg/kg/injection, schedule: Q07DX005 (ip), vehicle: saline with Tween-80) was 101 % of control.
With `COc1cccc2c1C(=O)c1c(O)c3c(c(O)c1C2=O)C[C@@](O)(C(C)=O)C[C@@H]3OC1CC(N)C(O)C(C)O1` (stereo partly specified) the T/C (endpoint: median tumor weight (est.), dose: 0.5 mg/kg/injection, schedule: Q07DX005 (ip), vehicle: water) was 41 % of control, the T/C (endpoint: median tumor weight (est.), dose: 1.0 mg/kg/injection, schedule: Q07DX005 (ip), vehicle: water) was 43 % of control and the T/C (endpoint: median tumor weight (est.), dose: 1.2 mg/kg/injection, schedule: Q07DX005 (ip), vehicle: saline) was 91 % of control. For the same molecule, the T/C (endpoint: median tumor weight (est.), dose: 1.78 mg/kg/injection, schedule: Q07DX005 (ip), vehicle: water) was 43 % of control, the T/C (endpoint: median tumor weight (est.), dose: 1.8 mg/kg/injection, schedule: Q07DX005 (ip), vehicle: saline) was 72 % of control and the T/C (endpoint: median tumor weight (est.), dose: 2.0 mg/kg/injection, schedule: Q07DX005 (ip), vehicle: water) was 38 % of control. The T/C (endpoint: median tumor weight (est.), dose: 2.67 mg/kg/injection, schedule: Q07DX005 (ip), vehicle: water) was 20 % of control and the T/C (endpoint: median tumor weight (est.), dose: 2.7 mg/kg/injection, schedule: Q07DX005 (ip), vehicle: saline) was 61 % of control.
For `Nc1ncnc2c1ccn2C1OC(CO)C(O)C1O` (stereo unspecified), the T/C (endpoint: mean tumor weight, dose: 0.25 mg/kg/injection, schedule: Q01DX009 (ip), vehicle: saline) was 162 % of control, the T/C (endpoint: mean tumor weight, dose: 0.5 mg/kg/injection, schedule: Q01DX009 (ip), vehicle: saline) was 98 % of control and the T/C (endpoint: mean tumor weight, dose: 1.0 mg/kg/injection, schedule: Q01DX009 (ip), vehicle: saline) was 114 % of control. For the same molecule, the T/C (endpoint: mean tumor weight, dose: 1.0 mg/kg/injection, schedule: Q07DX005 (ip), vehicle: saline) was 117 % of control, the T/C (endpoint: mean tumor weight, dose: 4.0 mg/kg/injection, schedule: Q07DX005 (ip), vehicle: saline) was 361 % of control and the T/C (endpoint: median tumor weight (est.), dose: 0.5 mg/kg/injection, schedule: Q07DX005 (ip), vehicle: Klucel (hydroxypropylcellulose) (HPC)) was 195 % of control. For the same molecule, the T/C [1] was 114 % of control.
In the case of `C/C=C/C1=CC(=O)C(O)C1O` (stereo unspecified), the T/C (endpoint: median tumor weight (est.), dose: 45.0 mg/kg/injection, schedule: Q07DX005 (ip), vehicle: water) is reported as 122 % of control, the T/C (endpoint: median tumor weight (est.), dose: 90.0 mg/kg/injection, schedule: Q07DX005 (ip), vehicle: water) is reported as 78 % of control and the T/C (endpoint: median tumor weight (est.), dose: 180.0 mg/kg/injection, schedule: Q07DX005 (ip), vehicle: water) is reported as 107 % of control.
For `O=NN(CCCl)C(=O)NC1CCCCC1`, the T/C (endpoint: mean tumor weight (est.), dose: 25.0 mg/kg/injection, schedule: Q07DX003 (ip), vehicle: saline + alcohol) was 88 % of control, the T/C (endpoint: mean tumor weight (est.), dose: 50.0 mg/kg/injection, schedule: Q07DX003 (ip), vehicle: saline + alcohol) was 28 % of control and the T/C (endpoint: mean tumor weight, dose: 6.25 mg/kg/injection, schedule: Q01DX009 (ip), vehicle: saline) was 78 % of control. The T/C (endpoint: mean tumor weight, dose: 12.5 mg/kg/injection, schedule: Q01DX009 (ip), vehicle: saline) was 75 % of control, the T/C (endpoint: mean tumor weight, dose: 12.5 mg/kg/injection, schedule: Q07DX006 (ip), vehicle: saline + alcohol) was 74 % of control and the T/C (endpoint: mean tumor weight, dose: 25.0 mg/kg/injection, schedule: Q01DX009 (ip), vehicle: saline) was 28 % of control. For the same molecule, the T/C (endpoint: mean tumor weight, dose: 25.0 mg/kg/injection, schedule: Q07DX006 (ip), vehicle: saline + alcohol) was 44 % of control, the T/C (endpoint: mean tumor weight, dose: 25.0 mg/kg/injection, schedule: Q07DX006 (ip), vehicle: saline) was 61 % of control and the T/C (endpoint: mean tumor weight, dose: 50.0 mg/kg/injection, schedule: Q07DX006 (ip), vehicle: saline + alcohol) was 11 % of control. For the same molecule, the T/C (endpoint: mean tumor weight, dose: 50.0 mg/kg/injection, schedule: Q07DX006 (ip), vehicle: saline) was 220 % of control, the T/C [1] was 99 % of control and the T/C (endpoint: median tumor weight (est.), dose: 16.0 mg/kg/injection, schedule: Q07DX005 (ip), vehicle: Klucel (hydroxypropylcellulose) (HPC)) was 30 % of control. The T/C (endpoint: median tumor weight (est.), dose: 32.0 mg/kg/injection, schedule: Q07DX005 (ip), vehicle: Klucel (hydroxypropylcellulose) (HPC)) was 29 % of control, the T/C (endpoint: median tumor weight change, dose: 4.0 mg/kg/injection, schedule: Q01DX001 (ip), vehicle: Klucel (hydroxypropylcellulose) (HPC)) was 66 % of control and the T/C (endpoint: median tumor weight change, dose: 8.0 mg/kg/injection, schedule: Q01DX001 (ip), vehicle: Klucel (hydroxypropylcellulose) (HPC)) was 73 % of control. For the same molecule, the T/C (endpoint: median tumor weight change, dose: 15.0 mg/kg/injection, schedule: Q01DX001 (ip), vehicle: Klucel (hydroxypropylcellulose) (HPC)) was 91 % of control, the T/C (endpoint: median tumor weight change, dose: 16.0 mg/kg/injection, schedule: Q01DX001 (ip), vehicle: Klucel (hydroxypropylcellulose) (HPC)) was 55 % of control and the T/C (endpoint: median tumor weight change, dose: 30.0 mg/kg/injection, schedule: Q01DX001 (ip), vehicle: Klucel (hydroxypropylcellulose) (HPC)) was 34 % of control. For the same molecule, the T/C (endpoint: median tumor weight change, dose: 32.0 mg/kg/injection, schedule: Q01DX001 (ip), vehicle: Klucel (hydroxypropylcellulose) (HPC)) was 40 % of control, the T/C (endpoint: median tumor weight change, dose: 60.0 mg/kg/injection, schedule: Q01DX001 (ip), vehicle: Klucel (hydroxypropylcellulose) (HPC)) was -23 % of control and the T/C (endpoint: median tumor weight change, dose: 80.0 mg/kg/injection, schedule: Q01DX001 (ip), vehicle: Klucel (hydroxypropylcellulose) (HPC)) was 17 % of control.
`CSCS(=O)C[C@H](CO)NC(=O)/C=C/c1c(C)[nH]c(=O)[nH]c1=O` (stereo partly specified) was tested, and the T/C (endpoint: median tumor weight (est.), dose: 0.12 mg/kg/injection, schedule: Q07DX005 (ip), vehicle: saline) was 100 % of control, the T/C (endpoint: median tumor weight (est.), dose: 0.25 mg/kg/injection, schedule: Q07DX005 (ip), vehicle: saline) was 76 % of control and the T/C (endpoint: median tumor weight (est.), dose: 0.5 mg/kg/injection, schedule: Q07DX005 (ip), vehicle: saline) was 50 % of control. The T/C (endpoint: median tumor weight (est.), dose: 4.0 mg/kg/injection, schedule: Q07DX005 (ip), vehicle: saline) was 10 % of control.
For `Cc1cc(=NO)cc(C)n1O`, the T/C (endpoint: median tumor weight change, dose: 125.0 mg/kg/injection, schedule: Q01DX001 (ip), vehicle: distilled water + alcohol) was 52 % of control and 77 % of control, the T/C (endpoint: median tumor weight change, dose: 250.0 mg/kg/injection, schedule: Q01DX001 (ip), vehicle: distilled water + alcohol) was 78 % of control and 80 % of control and the T/C (endpoint: median tumor weight change, dose: 500.0 mg/kg/injection, schedule: Q01DX001 (ip), vehicle: distilled water + alcohol) was 69 % of control and 78 % of control.
